Source: publication PMC8016166, “Identification of a Potent and Selective 5-HT1A Receptor Agonist with In Vitro and In Vivo Antinociceptive Activity” (ACS Chemical Neuroscience, 2020)
Like-named read-outs stand apart in the source and are kept apart here.

Legend:
[1] = target: T1, 5-HT2AR (Rattus norvegicus, UniProt P14842); test: Radioligand binding at 5-HT2A on rat frontal cortex membranes; settings: for selectivity 5-HT2A/5-HT1A: Antilog [pKi (5-HT1AR) – pKi (5-HT2AR)]; for Ki: read-out: 5-HT2A pKi ± SEM (converted)
T1 construct: from tissue; host or cells: frontal cortex of male Sprague-Dawley rats
Method: Male Sprague–Dawley rats were decapitated and their brains removed and placed on ice. The hippocampi (for the functional 5-HT1A receptor assay) or frontal cortexes (for the competitive 5-HT2A and 5-HT2C receptor assays) were dissected and homogenized with a glass homogenizer in 30 vol. ice-cold TED buffer (50 mMTris-HCl, 1 mM EDTA, 1 mM dithiotheritol, pH 7.4). Next, the homogenate was centrifuged at 21 000g for 30 min at 4 °C. The pellet was suspended in 30 vol TED buffer (pH 7.4) and incubated in a water bath for 10 min at 37 °C to remove endogenous ligands. The suspension was centrifuged again at 21 000g for 30 min at 4 °C. The pellet was resuspended in 30 vol TED buffer (pH 7.4) and the centrifugation step was repeated. The final pellet was suspended in 10 vol 50 mM Tris-HCl (pH 7.4) and stored at −80 °C until use.[47]
The 5-HT2A assay was performed according to a previously described protocol with some modifications.[48] […] Nonspecific binding was determined in the presence of 10 μM mianserin. For the 5-HT2C assay, the frontal cortex homogenates (250 μg protein/mL) were incubated in triplicate with 1 nM [^3H]mesulergine for 60 min at 36 °C in a 50 mM Tris-HCl (pH 7.4) buffer containing 0.1% ascorbate, 10 mM MgCl2, 10 μM pargyline, 100 nM spiperone, and increasing concentrations (10^–10–10^–5 M) of the compound tested. After incubation, the reaction mixture was deposited onto UniFilter-96 GF/B plates, with the aid of a FilterMate-96 Harvester. The filter plates were presoaked with 0.4% PEI for 1 h. Next, each filter well was washed with 1.75 mL of 50 mM Tris-HCl (pH 7.4) and left to dry on a heating block set to 50 °C for 2 h. Then, 45 μL of Microscint-20 scintillation fluid was added to each filter well and left to equilibrate overnight. The filter-bound radioactivity was counted in a MicroBeta^2 Microplate Counter. Curves were fitted with a one-site sigmoidal dose–response equation and pKi for each compound was calculated with the Cheng-Pursoff equation. Results were analyzed with one-way ANOVA followed by the Bonferroni’s posthoc test. The results are expressed as means ± SEM of three independent experiments.

[2] = target: T2, 5-HT1AR (Rattus norvegicus, UniProt P19327); test: Effect of WAY100635 on compound-stimulated [35S]GTPγS binding (Tables SI-1, SI-2); type: biochemical; settings: for Emax: basal set to 100%; for EC50: rat frontal cortex homogenates, read-out: pEC50 ± SEM, compound alone (converted); for shift ratio: with WAY100635 10^-7 M vs agonist alone
T2 construct: from tissue; hippocampus per the main-text methods
T2 sequence (P19327 1-422): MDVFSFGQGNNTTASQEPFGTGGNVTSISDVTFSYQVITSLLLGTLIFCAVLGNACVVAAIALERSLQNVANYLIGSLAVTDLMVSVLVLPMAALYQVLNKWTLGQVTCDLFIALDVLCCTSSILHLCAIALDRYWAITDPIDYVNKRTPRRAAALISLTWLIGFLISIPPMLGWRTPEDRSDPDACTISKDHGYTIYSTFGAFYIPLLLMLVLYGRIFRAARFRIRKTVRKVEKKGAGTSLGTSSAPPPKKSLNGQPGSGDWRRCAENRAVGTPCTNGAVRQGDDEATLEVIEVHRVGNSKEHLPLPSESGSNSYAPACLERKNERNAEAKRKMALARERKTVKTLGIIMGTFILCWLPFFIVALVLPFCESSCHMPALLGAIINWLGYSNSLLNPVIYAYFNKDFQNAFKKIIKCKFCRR
Method: The [^35S]GTPγS assay was performed according to the method described previously.[49] […] Nonspecific binding was determined with 100 μM of unlabeled GTPγS. The reaction mixture was incubated for 90 min at 36 °C in a volume of 250 μL. […] Next, 96-well Unifilter Plates (PerkinElmer, USA) were presoaked for 1 h with 50 mM Tris-HCl (pH = 7.4) before harvesting. The reaction was terminated by vacuum filtration onto filter plates with the Filter Mate Harvester (PerkinElmer, USA). The samples were then rapidly washed with 2 mL of 50 mM Tris-HCl (pH = 7.4) buffer. The filter plates were dried for 2 h at 50 °C. After drying, 45 μL of EcoScint-20 scintillant (PerkinElmer, USA) was added to every well. The radioactivity was counted in a Trilux MicroBeta^2 counter (PerkinElmer, USA). The data were analyzed with GraphPad Prism 5.0 software (GraphPad Software, San Diego California USA, www.graphpad.com). To determine whether compound-stimulated [^35S]GTPγS binding involved 5-HT1A receptors, two protocols were used. […]
WAY).) Results were expressed as means ± SEM. Curves were fitted with a one-site sigmoidal dose-response equation […]
calculated as the ratio of pEC50 in the presence of WAY100635 divided by the pEC50 of agonist alone. Basal 5-HT1AR activation was set to 100%. Results were analyzed with one-way ANOVA followed by the Bonferroni’s post-hoc test. […]
WAY100635 (10^-10 M - 10^-5 M, WAY). Results were expressed as means ± SEM. Curves were fitted with a one-site sigmoidal dose-response equation and Emax (%) of the EC80 agonist concentration alone and in the presence of WAY100635 were determined from 2 independent experiments. Basal (no ligand added) [35S]GTPγS binding was set to 100%. Results were analyzed with one-way ANOVA followed by the Bonferroni’s post-hoc test.

[3] = Table SI-1, read-out: Emax (%) ± SEM, compound alone
[4] = Table SI-2, read-out: Emax (%) ± SEM of EC80 agonist concentration alone

T1 sequence (P14842 whole entry): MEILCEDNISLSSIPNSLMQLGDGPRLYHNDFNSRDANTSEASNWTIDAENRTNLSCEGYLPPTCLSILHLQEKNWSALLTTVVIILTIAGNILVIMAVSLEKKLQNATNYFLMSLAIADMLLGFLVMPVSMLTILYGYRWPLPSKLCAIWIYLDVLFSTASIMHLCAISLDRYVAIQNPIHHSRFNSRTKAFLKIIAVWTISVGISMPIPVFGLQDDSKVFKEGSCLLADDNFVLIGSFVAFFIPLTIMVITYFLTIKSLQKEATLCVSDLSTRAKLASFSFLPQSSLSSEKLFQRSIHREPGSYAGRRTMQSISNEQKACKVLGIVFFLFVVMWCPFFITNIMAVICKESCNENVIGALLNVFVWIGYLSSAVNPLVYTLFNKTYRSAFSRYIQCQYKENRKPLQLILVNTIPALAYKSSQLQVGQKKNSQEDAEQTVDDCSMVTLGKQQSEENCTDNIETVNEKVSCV

| Structure (SMILES) | selectivity 5-HT2A/5-HT1A [1] | Ki [1] [nM] | Emax [2, 3] [%] | EC50 ([2]; Table SI-1) [nM] | shift ratio ([2]; Table SI-1) | Emax [2, 4] [%] |
| --- | --- | --- | --- | --- | --- | --- |
| Cn1cncc1-c1ccccc1OCCNC[C@@H]1COC(c2ccccc2)(c2ccccc2)O1 [(R)-2, N-((2,2-Diphenyl-1,3-dioxolan-4-yl)methyl)-2-(2-(1-methyl-1H-imidazol-5-yl)phenoxy)ethan-1-ammonium hydrogenoxalate] | 74 | 891 | 143 ± 3.6 | 63.1 | 19.9 | 140 ± 18.8 |
| c1ccc(C2(c3ccccc3)OCC(CNCCOc3ccccc3-c3ccncc3)O2)cc1 (racemic) [rac-1, N-[(2,2-diphenyl-1,3-dioxolan-4-yl)methyl]-2-[2-(pyridin-4-yl)phenoxy]ethan-1-ammonium hydrogenoxalate] | 123 | 1120 | 151 ± 4.2 | 100 | 6.3 | 138 ± 28.4 |
| Cn1cncc1-c1ccccc1OCCNC[C@H]1COC(c2ccccc2)(c2ccccc2)O1 [(S)-2, N-((2,2-Diphenyl-1,3-dioxolan-4-yl)methyl)-2-(2-(1-methyl-1H-imidazol-5-yl)phenoxy)ethan-1-ammonium hydrogenoxalate] | 245 | 1000 | 175 ± 2.7 | 25.1 | 25.1 | 156 ± 21.7 |
| Cn1cncc1-c1ccccc1OCCNCC1COC(c2ccccc2)(c2ccccc2)O1 (racemic) [rac-2, N-((2,2-diphenyl-1,3-dioxolan-4-yl)methyl)-2-(2-(1-methyl-1H-imidazol-5-yl)phenoxy)ethan-1-ammonium hydrogenoxalate] | 56 | 417 | 184 ± 2.7 | 39.8 | 31.6 | 158 ± 24.6 |
| c1ccc(C2(c3ccccc3)OC[C@H](CNCCOc3ccccc3-c3ccncc3)O2)cc1 [(S)-1, N-[(2,2-Diphenyl-1,3-dioxolan-4-yl)methyl]-2-[2-(pyridin-4-yl)phenoxy]ethan-1-ammonium hydrogenoxalate] | 85 | 794 | 138 ± 2.9 | 15.8 | 39.8 | 134 ± 24.5 |
| c1ccc(C2(c3ccccc3)OC[C@@H](CNCCOc3ccccc3-c3ccncc3)O2)cc1 [(R)-1, N-[(2,2-Diphenyl-1,3-dioxolan-4-yl)methyl]-2-[2-(pyridin-4-yl)phenoxy]ethan-1-ammonium hydrogenoxalate] | 355 | 1580 | 158 ± 5.9 | 63.1 | 10.0 | 149 ± 35.1 |
